The target in one assay is CRBN-DDB1 (Homo sapiens, UniProt Q96SW2). Put plainly: Compound binding to CRBN by HTRF assay. Particulars: CRBN-DDB1 2.5 nM, Cy5-Thalidomide 100 nM, 30 min at ambient temperature; read-out: HTRF Class (Cereblon binding, HTRF IC50). As for the experimental part: Example 146: Compound Binding to CRBN by HTRF Assay
Compound activity was monitored in a Homogenous Time-Resolved Fluorescence (HTRF) assay using 1-[5-({2-[2-(2-{[2-(2,6-dioxopiperidin-3-yl)-1,3-dioxo-2,3-dihydro-1H-isoindol-4-yl]oxy}acetamido)ethoxy]ethyl}carbamoyl)pentyl]-3,3-dimethyl-2-[(1E,3E)-5-[(2E)-1,3,3-trimethyl-5-sulfo-2,3-dihydro-1H-indol-2-ylidene]penta-1,3-dien-1-yl]-3H-indol-1-ium-5-sulfonate as a fluorescent probe. Biochemical assays were conducted in Greiner white 384 well HiBase plates (Cat. No 784075-25) in 10 μL total volume. A one pot detection solution of CRBN-DDB1 (2.5 nM), Anti-His Terbium Cryptate Gold (1X, PerkinElmer Cat. #: 61HI2TLB), and Cy5-Thalidomide (100 nM, Tenova Cat.: T52461) was prepared in 20 mM HEPES, 20 mM NaCl, 0.2 mM TCEP, 0.2 mM EDTA, and 0.005% Tween20 was dispensed to each assay plate. Compounds were stored in dry, ambient temperatures at 10 mM. A 10-point, 1:3 dilution series was prepared from 10 mM stock concentrations in Echo-compatible LDV plates. 10 nL of each compound dilution series was dispensed into assays wells using an Echo 650 (Labcyte inc. USA). 10 nL of 10 mM Lenalidomide was transferred into the active-control wells for the assay and 10 nL of DMSO was transferred into the neutral-control wells. The assay was then allowed to incubate for 30 min at ambient temperature after transferring compound. Plate measurements were taken on a Pherastar FSX (BMG Labtech, Germany) using the HTRF Red filter (Ex. 337 nm, em1: 620 nm, em2: 665 nm) (Flashes: 50, Integration time: 60-400 us, Z-height: 10 mm, Ratio-multiplier: 10,000). The HTRF signal was then subsequently normalized to the neutral and active controls. Analysis and IC50 values were derived using KNIME analytics (KNIME Zurich) transformation and fitting within Collaborative Drug Discovery (Collaborative Drug Discovery USA). Ki was derived from the geometric mean of the IC50 values using the Cheng-Prustoff transformation.
(§1) In Table 2, each compound is assigned a class (HTRF class) indicating the ability for Cereblon binding by means of their HTRF IC50 values according to […]: A, B, C or D. According to the code, A represents an IC50 value of ≤100 nM, B represents an IC50 value>100 nM and ≤1000 nM, C represents an IC50 value>1000 nM. IF Class assigns each compound a code indicating the ability for GSPT1 degradation: A, B or C. According to the code, A represents a DC50 value of ≤30 nM, B represents a DC50 value>30 nM and ≤300 nM and C represents a DC50 value of >300 nM.
(In general: TR-FRET usually uses a lanthanide donor and a delayed reading to cut background.)

The next assay concerns the target T1, GSPT1 (Homo sapiens, UniProt P15170+Q96SW2).
T1 construct: CAL-51 cells were purchased from DSMZ (cat. Number ACC302); host or cells: CAL-51
Put plainly: Immunofluorescence assay for activity to degrade GSPT1 in CAL-51 cells. It counts as cell-based. To be noted: 6 h treatment, read-out: IF Class (GSPT1 degradation, DC50). The method, then:
Example 147: Compound Activity by Immunofluorescence Assay
The representative compounds were tested in an immunofluorescence assay for their activity to degrade GSPT1. CAL-51 cells were purchased from DSMZ (cat. Number ACC302), sub-cultured in 90% Dulbecco's MEM (4.5 g/L glucose, Gibco 11965)+10% heat inactivated FBS (BioConcept, 2-01F136I) and incubated at 37° C., 5% CO2. For the assay imaging microtiter plate Cell Carrier 96 Ultra (Perkin Elmer 6055302) were pre-coated with Fibronectin (Sigma F085, 30 μL at 0.2 μg/mL) in PBS (100 μL, Gibco 14190) for 45 min at room temperature, rinsed with PBS and CAL-51 cells (30K cells/well) were plated and let to adhere overnight. Cells were treated with compounds typically using a serial dilution ranging from 30 μM to 0.1 nM for 6 h. Compounds were stored at 10 mM DMSO stocks. Vehicle (DMSO), positive (CC-885, 10 μM) and rescue controls (positive control plus 0.2 μM bortezomib) were also included at this stage. Cells were subsequently rinsed with PBS and fixed in 10% Formalin solution (50 μL, Sigma HT5011)) for 20 mins at room temperature. Following three consecutive PBS washes (100 μL), cells were permeabilized in 0.1% Triton X-100 in PBS (Sigma 93443, 50 μL) for 15 min. at room temperature. Following three further PBS washes, 50 μL blocking buffer (1% BSA, Sigma A4503, in PBS) was added for 45 min for signal-to noise reduction. Primary antibody (human GSPT1, Sigma HPA052488) was diluted in blocking buffer (dil.1/300, 35 μL/well) and incubated with the cells overnight at 4° C. After three PBS washes, Alexa-fluor 488 coupled secondary antibodies (Invitrogen, A32731, dil. 1/1000), Alexa-fluor 647-Phalloidin (Invitrogen, A22287, dil. 1/200) and DAPI (Thermo, #62248, dil. 1/1000) were diluted in blocking buffer and incubated with the samples for 2 h at room temperature. After three final PBS washes, samples were conserved in 100 μL PBS in the dark, until measurement. Image acquisition was performed on the Operetta High-Content Imager (Perkin-Elmer). Fluorescence intensity of […] (GSPT1), Alexa-Fluor 647 (Actin) and DAPI (Nucleus) were measured. For the determination of GSPT1 DC50 values, a custom algorithm implemented in the PerkinElmer image analysis software Harmony-Acapella® was developed. After user-defined setting of adjustment parameters, the analysis was run identically without human intervention for all image fields. DAPI staining of the nuclei was used to determine the location of cells using standard nuclei detection modules. Segmentation artifacts were removed by threshold-based filters for area, roundness and intensity. The outline of the cells was determined analogously from the sum of the normalized, smoothed DAPI and Actin channel, starting from each nucleus. The Alexa-Fluor 488 (GSPT1) signal intensity in each cell was finally measured, in order to obtain a Mean intensity per cell. GSPT1 degradation (DC50) was calculated after normalization to controls and data import in CDD vault Database, using non-linear regression.
as §1

IC50 and DC50 data for 17 compounds are collected here from patent US20240308976A1, “COMPOUNDS THAT MEDIATE PROTEIN DEGRADATION AND USES THEREOF” (Monte Rosa Therapeutics, Inc., priority 2021, published 2024).

A word on the IC50: it is the point on the concentration scale where inhibition reaches its midpoint. One may read the DC50 as the concentration at which degradation of the target reaches its halfway point.

T1 sequence (P15170 whole entry): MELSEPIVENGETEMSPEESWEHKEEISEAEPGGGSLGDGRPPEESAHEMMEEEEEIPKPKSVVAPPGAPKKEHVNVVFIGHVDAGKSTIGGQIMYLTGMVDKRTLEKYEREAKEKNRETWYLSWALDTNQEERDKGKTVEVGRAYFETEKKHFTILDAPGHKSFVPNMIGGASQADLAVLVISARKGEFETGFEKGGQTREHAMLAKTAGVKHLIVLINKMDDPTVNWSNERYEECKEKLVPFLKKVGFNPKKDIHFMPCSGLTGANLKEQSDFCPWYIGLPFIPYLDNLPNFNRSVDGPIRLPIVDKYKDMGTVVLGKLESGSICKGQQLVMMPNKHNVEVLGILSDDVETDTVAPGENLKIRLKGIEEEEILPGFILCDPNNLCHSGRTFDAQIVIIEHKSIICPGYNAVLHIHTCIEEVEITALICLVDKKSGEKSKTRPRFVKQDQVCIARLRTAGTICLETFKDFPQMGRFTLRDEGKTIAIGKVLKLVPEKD
T1 sequence (Q96SW2 whole entry): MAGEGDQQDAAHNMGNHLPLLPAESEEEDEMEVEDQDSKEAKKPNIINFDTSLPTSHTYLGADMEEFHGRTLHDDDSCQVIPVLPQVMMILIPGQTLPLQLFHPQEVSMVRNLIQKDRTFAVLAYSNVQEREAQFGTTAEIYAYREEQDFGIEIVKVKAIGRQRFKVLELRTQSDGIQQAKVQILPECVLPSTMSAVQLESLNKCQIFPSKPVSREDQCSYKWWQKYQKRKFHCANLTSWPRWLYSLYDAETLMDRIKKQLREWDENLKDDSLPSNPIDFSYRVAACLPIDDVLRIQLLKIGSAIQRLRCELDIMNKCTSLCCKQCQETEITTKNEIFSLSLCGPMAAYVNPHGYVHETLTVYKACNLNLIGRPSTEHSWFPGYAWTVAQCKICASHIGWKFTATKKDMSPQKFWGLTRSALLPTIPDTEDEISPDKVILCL
T1 sequence (Q16531 2-1140 partner limits assumed): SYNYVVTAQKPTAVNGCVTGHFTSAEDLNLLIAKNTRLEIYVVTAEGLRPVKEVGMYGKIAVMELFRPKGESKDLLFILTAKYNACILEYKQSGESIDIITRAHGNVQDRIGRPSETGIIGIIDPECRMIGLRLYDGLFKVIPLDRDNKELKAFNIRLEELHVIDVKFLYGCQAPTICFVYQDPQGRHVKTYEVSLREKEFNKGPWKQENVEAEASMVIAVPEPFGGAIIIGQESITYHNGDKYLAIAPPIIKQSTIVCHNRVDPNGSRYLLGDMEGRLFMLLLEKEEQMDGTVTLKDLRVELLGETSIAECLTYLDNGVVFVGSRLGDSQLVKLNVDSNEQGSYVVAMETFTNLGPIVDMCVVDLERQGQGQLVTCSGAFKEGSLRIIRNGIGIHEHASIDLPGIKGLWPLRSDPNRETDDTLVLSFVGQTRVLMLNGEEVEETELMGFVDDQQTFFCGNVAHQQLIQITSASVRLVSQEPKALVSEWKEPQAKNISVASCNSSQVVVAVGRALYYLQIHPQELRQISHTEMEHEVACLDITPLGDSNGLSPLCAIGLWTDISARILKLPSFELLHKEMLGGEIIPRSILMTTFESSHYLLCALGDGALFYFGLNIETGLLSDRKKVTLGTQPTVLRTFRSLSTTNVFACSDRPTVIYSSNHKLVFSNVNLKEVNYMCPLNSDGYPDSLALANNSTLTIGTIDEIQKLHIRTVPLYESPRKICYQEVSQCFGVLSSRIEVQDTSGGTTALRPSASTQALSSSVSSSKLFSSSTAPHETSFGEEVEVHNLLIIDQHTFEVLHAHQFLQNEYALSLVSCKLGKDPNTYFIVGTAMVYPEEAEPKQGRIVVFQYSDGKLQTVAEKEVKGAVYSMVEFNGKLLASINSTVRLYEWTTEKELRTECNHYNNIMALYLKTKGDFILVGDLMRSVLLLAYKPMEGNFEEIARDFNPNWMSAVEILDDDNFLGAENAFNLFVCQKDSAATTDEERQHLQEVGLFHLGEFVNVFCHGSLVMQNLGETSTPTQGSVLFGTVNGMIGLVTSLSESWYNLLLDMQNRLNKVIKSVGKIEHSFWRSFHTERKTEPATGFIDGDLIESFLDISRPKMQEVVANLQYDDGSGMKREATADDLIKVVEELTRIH
Chain of CRBN-DDB1 (Q96SW2 whole entry): as the sequence (Q96SW2 whole entry) above
Chain of CRBN-DDB1 (Q16531 whole entry partner): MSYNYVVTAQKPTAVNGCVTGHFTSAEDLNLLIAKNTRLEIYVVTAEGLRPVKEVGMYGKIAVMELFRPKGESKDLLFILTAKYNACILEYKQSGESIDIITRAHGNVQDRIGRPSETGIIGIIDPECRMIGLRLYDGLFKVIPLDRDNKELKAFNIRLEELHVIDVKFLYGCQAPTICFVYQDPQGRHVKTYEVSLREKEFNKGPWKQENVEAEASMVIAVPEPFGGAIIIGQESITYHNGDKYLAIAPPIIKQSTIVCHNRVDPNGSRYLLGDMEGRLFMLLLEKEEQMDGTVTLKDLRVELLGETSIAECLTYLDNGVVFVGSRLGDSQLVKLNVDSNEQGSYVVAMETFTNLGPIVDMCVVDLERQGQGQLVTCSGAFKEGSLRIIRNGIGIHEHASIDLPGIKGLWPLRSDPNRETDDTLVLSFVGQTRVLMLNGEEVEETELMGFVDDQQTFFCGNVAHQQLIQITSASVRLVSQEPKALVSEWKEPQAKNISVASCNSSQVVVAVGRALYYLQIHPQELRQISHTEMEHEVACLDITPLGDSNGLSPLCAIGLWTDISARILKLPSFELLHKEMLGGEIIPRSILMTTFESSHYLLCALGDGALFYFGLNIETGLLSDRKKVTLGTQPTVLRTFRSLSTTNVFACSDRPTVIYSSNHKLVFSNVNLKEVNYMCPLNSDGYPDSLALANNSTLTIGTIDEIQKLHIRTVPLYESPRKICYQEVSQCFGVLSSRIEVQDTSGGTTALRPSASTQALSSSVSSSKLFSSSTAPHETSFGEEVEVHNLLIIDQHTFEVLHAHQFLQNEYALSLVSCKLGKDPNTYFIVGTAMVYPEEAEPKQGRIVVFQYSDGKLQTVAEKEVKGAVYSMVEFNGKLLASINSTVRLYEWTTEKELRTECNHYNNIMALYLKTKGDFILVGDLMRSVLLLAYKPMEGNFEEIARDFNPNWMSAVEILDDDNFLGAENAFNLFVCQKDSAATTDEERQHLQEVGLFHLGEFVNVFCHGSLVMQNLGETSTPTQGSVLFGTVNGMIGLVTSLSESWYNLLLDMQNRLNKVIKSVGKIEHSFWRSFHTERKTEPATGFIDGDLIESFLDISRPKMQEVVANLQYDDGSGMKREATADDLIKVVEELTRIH

`O=C1CCC(c2c(F)cc(N3CC(NC(=O)Nc4cc(OC(F)(F)F)ccn4)C3)cc2F)C(=O)N1` (stereo not shown) [Compound 27, 1-(1-(4-(2,6-dioxopiperidin-3-yl)-3,5-difluorophenyl)azetidin-3-yl)-3-(4-(trifluoromethoxy)pyridin-2-yl)urea]: on CRBN-DDB1, the half-maximal inhibitory concentration (IC50) is at most 100 nM. Moreover, the DC50 on GSPT1 was 30 to 300 nM.

On to `Cc1c(Cl)cc(NC(=O)NC2CN(c3cc(F)c(C4CCC(=O)NC4=O)c(F)c3)C2)cc1OCCN1CCOCC1` (stereo not shown) [Compound 13, 1-(3-chloro-4-methyl-5-(2-morpholinoethoxy)phenyl)-3-(1-(4-(2,6-dioxopiperidin-3-yl)-3,5-difluorophenyl)azetidin-3-yl)urea], for which the IC50 on CRBN-DDB1 is at most 100 nM. In addition, on GSPT1, the half-maximal degradation concentration (DC50) is at most 30 nM.

Regarding `O=C1CCC(c2c(F)cc(N3CC(OC(=O)NCC4COC4)C3)cc2F)C(=O)N1` (stereo not shown) [Compound 141, 1-(4-(2,6-dioxopiperidin-3-yl)-3,5-difluorophenyl) azetidin-3-yl (oxetan-3-ylmethyl)carbamate], the half-inhibitory concentration (IC50) on CRBN-DDB1 is at most 100 nM. In addition, the 50% degradation concentration (DC50) at GSPT1 is above 300 nM.

Take `O=C1CCC(c2c(F)cc(N3CC(OC(=O)N[C@@H]4CCCOC4)C3)cc2F)C(=O)N1` (stereo partly drawn) [Compound 85, 1-(4-(2,6-dioxopiperidin-3-yl)-3,5-difluorophenyl)azetidin-3-yl((R)-tetrahydro-2H-pyran-3-yl)carbamate]: on CRBN-DDB1, the IC50 was 100 to 1000 nM. In addition, the DC50 at GSPT1 is above 300 nM.

On to `CC1(c2ccc(NC(=O)NC3CN(c4cc(F)c(C5CCC(=O)NC5=O)c(F)c4)C3)cc2)CC1` (stereo not shown) [Compound 60, 1-(1-(4-(2,6-dioxopiperidin-3-yl)-3,5-difluorophenyl)azetidin-3-yl)-3-(4-(1-methylcyclopropyl)phenyl)urea], for which, at CRBN-DDB1, the IC50 was 100 to 1000 nM. Also, at GSPT1, the 50% degradation concentration (DC50) was at most 30 nM.

Turning to `O=C1CCC(c2c(F)cc(N3CC(OC(=O)N4CCCC4)C3)cc2F)C(=O)N1` (stereo not shown) [Compound 144, 1-(4-(2,6-dioxopiperidin-3-yl)-3,5-difluorophenyl)azetidin-3-yl pyrrolidine-1-carboxylate], at CRBN-DDB1, the 50% inhibitory concentration (IC50) fell in the range of 100 to 1000 nM. For the same compound, the 50% degradation concentration (DC50) on GSPT1 was above 300 nM.

On to `Cc1ccc(NC(=O)OC2CN(c3ccc(C4CCC(=O)NC4=O)c(F)c3)C2)cc1Cl` (stereo not shown) [Compound 8, 1-(4-(2,6-dioxopiperidin-3-yl)-3-fluorophenyl) azetidin-3-yl(3-chloro-4-methylphenyl)carbamate], for which the half-inhibitory concentration (IC50) on CRBN-DDB1 was 100 to 1000 nM. Also, the half-maximal degradation concentration (DC50) on GSPT1 is at most 30 nM.

With `O=C1CCC(c2c(F)cc(N3CC(OC(=O)NC4CC(F)(F)C4)C3)cc2F)C(=O)N1` (stereo not shown) [Compound 88, 1-(4-(2,6-dioxopiperidin-3-yl)-3,5-difluorophenyl)azetidin-3-yl(3,3-difluorocyclobutyl)carbamate], the half-maximal inhibitory concentration (IC50) on CRBN-DDB1 is 100 to 1000 nM. Besides, the half-maximal degradation concentration (DC50) on GSPT1 was above 300 nM.

Regarding `Cc1cc(F)cc(NC(=O)OC2CN(c3cc(F)c(C4CCC(=O)NC4=O)c(F)c3)C2)c1` (stereo not shown) [Compound 78, 1-(4-(2,6-dioxopiperidin-3-yl)-3,5-difluorophenyl)azetidin-3-yl(3-fluoro-5-methylphenyl)carbamate], the IC50 at CRBN-DDB1 lay in the range of 100 to 1000 nM. In addition, the DC50 on GSPT1 is at most 30 nM.

Consider `O=C1CCC(c2c(F)cc(N3CC(NC(=O)Nc4cc(Cl)cc(OC(F)F)c4)C3)cc2F)C(=O)N1` (stereo not shown) [Compound 28, 1-(3-chloro-5-(difluoromethoxy)phenyl)-3-(1-(4-(2,6-dioxopiperidin-3-yl)-3,5-difluorophenyl)azetidin-3-yl)urea], for which the IC50 at CRBN-DDB1 was 100 to 1000 nM. Also, the DC50 on GSPT1 fell in the range of 30 to 300 nM.

With `CC1(NC(=O)OC2CN(c3cc(F)c(C4CCC(=O)NC4=O)c(F)c3)C2)CCCCC1` (stereo not shown) [Compound 135, 1-(4-(2,6-dioxopiperidin-3-yl)-3,5-difluorophenyl)azetidin-3-yl (1-methylcyclohexyl)carbamate], the IC50 at CRBN-DDB1 was at most 100 nM. Moreover, the DC50 at GSPT1 was at most 30 nM.

Turning to `O=C1CCC(c2c(F)cc(N3CC(NC(=O)N[C@H]4C[C@H](c5ccccc5)C4)C3)cc2F)C(=O)N1` (stereo partly drawn) [Compound 77, 1-(1-(4-(2,6-dioxopiperidin-3-yl)-3,5-difluorophenyl)azetidin-3-yl)-3-((1R,3R)-3-phenylcyclobutyl)urea], the IC50 on CRBN-DDB1 is 100 to 1000 nM. The DC50 at GSPT1 was at most 30 nM.

Consider `Cc1ccc(NC(=O)OC2CN(c3ccc(C4CCC(=O)NC4=O)cc3)C2)cc1Cl` (stereo not shown) [Compound 55, 1-(4-(2,6-dioxopiperidin-3-yl)phenyl)azetidin-3-yl (3-chloro-4-methylphenyl)carbamate], for which the IC50 on CRBN-DDB1 was above 1000 nM. In addition, the 50% degradation concentration (DC50) on GSPT1 was in the range of 30 to 300 nM.

For the compound `O=C1CCC(c2c(F)cc(N3CC(NC(=O)Nc4cccc(OC5CC5)c4)C3)cc2F)C(=O)N1` (stereo not shown) [Compound 17, 1-(3-cyclopropoxyphenyl)-3-(1-(4-(2,6-dioxopiperidin-3-yl)-3,5-difluorophenyl)azetidin-3-yl)urea], the IC50 on CRBN-DDB1 lay in the range of 100 to 1000 nM. For the same compound, the DC50 at GSPT1 was in the range of 30 to 300 nM.

In the case of `CC1(C)CC(NC(=O)OC2CN(c3cc(F)c(C4CCC(=O)NC4=O)c(F)c3)C2)C1` (stereo not shown) [Compound 97, 1-(4-(2,6-dioxopiperidin-3-yl)-3,5-difluorophenyl)azetidin-3-yl (3,3-dimethylcyclobutyl)carbamate], at CRBN-DDB1, the IC50 was at most 100 nM. Further, the DC50 on GSPT1 was at most 30 nM.

As to `O=C1CCC(c2c(F)cc(N3CC(OC(=O)NCC4CCCCC4)C3)cc2F)C(=O)N1` (stereo not shown) [Compound 127, 1-(4-(2,6-dioxopiperidin-3-yl)-3,5-difluorophenyl)azetidin-3-yl(cyclohexylmethyl) carbamate], the IC50 at CRBN-DDB1 is 100 to 1000 nM. For the same compound, the DC50 on GSPT1 is at most 30 nM.

For `O=C1CCC(c2c(F)cc(N3CC(OC(=O)N4CCCCC4)C3)cc2F)C(=O)N1` (stereo not shown) [Compound 143, 1-(4-(2,6-dioxopiperidin-3-yl)-3,5-difluorophenyl)azetidin-3-yl piperidine-1-carboxylate], the concentration for half-maximal inhibition (IC50) on CRBN-DDB1 lay in the range of 100 to 1000 nM. In addition, the DC50 at GSPT1 is above 300 nM.
